Measured values as given in patent publication US7659289B2, “Hydroxyethylene-based β-secretase inhibitors and use thereof” (CoMentis, Inc., priority 2004, dated 2010).

Legend:
memapsin 2 = memapsin 2 (Homo sapiens, UniProt P56817); assay: Inhibition of memapsin 2 beta-secretase activity toward fluorogenic substrate FS-2; assay type: biochemical; conditions: pH 4, 37° C., 20 minutes pre-incubation, fluorogenic substrate FS-2, tight-binding model; read-out: M2 Ki
Cathepsin D = Cathepsin D (Homo sapiens, UniProt P07339); assay: Inhibition of cathepsin D activity (MALDI-TOF, substrate peptide […]); assay type: biochemical; conditions: pH 4.1, 37 degrees C., read-out: Cath D Ki
Cathepsin D, sequence (P07339 65-412, species assumed): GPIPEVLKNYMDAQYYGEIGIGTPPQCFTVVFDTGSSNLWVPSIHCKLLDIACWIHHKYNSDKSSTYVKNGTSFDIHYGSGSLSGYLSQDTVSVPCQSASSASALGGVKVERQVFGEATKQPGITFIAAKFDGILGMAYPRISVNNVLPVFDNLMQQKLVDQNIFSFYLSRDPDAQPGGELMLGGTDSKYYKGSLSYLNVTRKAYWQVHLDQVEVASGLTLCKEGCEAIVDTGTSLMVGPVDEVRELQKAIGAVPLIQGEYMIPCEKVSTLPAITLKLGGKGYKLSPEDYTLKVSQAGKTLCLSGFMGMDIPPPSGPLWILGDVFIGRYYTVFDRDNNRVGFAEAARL

memapsin 2, sequence (P56817 46-501): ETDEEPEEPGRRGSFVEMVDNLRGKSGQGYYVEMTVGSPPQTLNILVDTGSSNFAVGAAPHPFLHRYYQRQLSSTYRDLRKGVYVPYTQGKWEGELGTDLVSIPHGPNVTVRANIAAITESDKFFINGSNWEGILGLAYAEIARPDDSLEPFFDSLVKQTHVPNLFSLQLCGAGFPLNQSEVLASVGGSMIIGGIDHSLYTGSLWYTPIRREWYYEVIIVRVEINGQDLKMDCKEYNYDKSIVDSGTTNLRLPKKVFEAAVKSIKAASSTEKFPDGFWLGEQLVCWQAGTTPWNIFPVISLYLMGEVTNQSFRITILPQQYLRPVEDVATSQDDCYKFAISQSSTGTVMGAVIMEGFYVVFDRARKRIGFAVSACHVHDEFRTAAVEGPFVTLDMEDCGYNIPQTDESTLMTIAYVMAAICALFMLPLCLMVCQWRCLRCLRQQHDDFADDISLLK

| SMILES | Ki (memapsin 2) [nM] | Ki (Cathepsin D) [nM] |
| --- | --- | --- |
| Cc1nc(COC(=O)N[C@@H](CC(=O)N(C)C)C(=O)N[C@@H](CC(C)C)[C@@H](O)C[C@@H](C)C(=O)N[C@H](C(=O)NCC(C)C)C(C)C)c(C)o1 [(2,5-dimethyloxazol-4-yl)methyl (5S,8S,9S,11R,14S)-9-hydroxy-8-isobutyl-14-isopropyl-2,11,18-trimethyl-3,6,12,15-tetraoxo-2,7,13,16-tetraazanonadecan-5-ylcarbamate] | 100 to 600 |  |
| Cc1nc(COC(=O)N[C@@H](CC(=O)NCc2ccncc2)C(=O)N[C@@H](CC(C)C)[C@@H](O)C[C@@H](C)C(=O)N[C@H](C(=O)NCC(C)C)C(C)C)c(C)o1 [(2,5-dimethyloxazol-4-yl)methyl (5S,8S,9S,11R,14S)-9-hydroxy-8-isobutyl-14-isopropyl-11,18-dimethyl-3,6,12,15-tetraoxo-1-(pyridin-4-yl)-2,7,13,16-tetraazanonadecan-5-ylcarbamate] | 100 to 600 | < 100 |
| Cc1nc(COC(=O)N[C@@H](CC(N)=O)C(=O)N[C@@H](CC(C)C)[C@@H](O)C[C@@H](C)C(=O)N[C@H](C(=O)NCC(C)C)C(C)C)c(C)o1 [(2,5-dimethyloxazol-4-yl)methyl (S)-4-amino-1-((4S,5S,7R)-5-hydroxy-8-((S)-1-(isobutylamino)-3-methyl-1-oxobutan-2-ylamino)-2,7-dimethyl-8-oxooctan-4-ylamino)-1,4-dioxobutan-2-ylcarbamate] | 100 to 600 | < 100 |
| Cc1cc(C)n(CC(C)C(=O)N[C@@H](CC(N)=O)C(=O)N[C@@H](CC(C)C)[C@@H](O)C[C@@H](C)C(=O)N[C@H](C(=O)NCC(C)C)C(C)C)n1 (stereo partly drawn) [(2S)-2-(3-(3,5-dimethyl-1H-pyrazol-1-yl)-2-methylpropanamido)-N1-((4S,5S,7R)-5-hydroxy-8-((S)-1-(isobutylamino)-3-methyl-1-oxobutan-2-ylamino)-2,7-dimethyl-8-oxooctan-4-yl)succinamide] | 100 to 600 |  |
| Cc1cc(C)n(CCC(=O)N[C@@H](CC(N)=O)C(=O)N[C@@H](CC(C)C)[C@@H](O)C[C@@H](C)C(=O)NC(CO)C(=O)NCC(C)C)n1 (stereo partly drawn) [(2S)-2-(3-(3,5-dimethyl-1H-pyrazol-1-yl)propanamido)-N1-((4S,5S,7R)-5-hydroxy-8-(3-hydroxy-1-(isobutylamino)-1-oxopropan-2-ylamino)-2,7-dimethyl-8-oxooctan-4-yl)succinamide] | > 600 |  |
| CC(=O)NC[C@H](NC(=O)OCc1nc(C)cs1)C(=O)N[C@@H](CC(C)C)[C@@H](O)C[C@@H](C)C(=O)N[C@H](C(=O)NCC(C)C)C(C)C [(4-methylthiazol-2-yl)methyl (5S,8S,9S,11R,14S)-9-hydroxy-8-isobutyl-14-isopropyl-11,18-dimethyl-2,6,12,15-tetraoxo-3,7,13,16-tetraazanonadecan-5-yicarbamate] | 100 to 600 | 100 to 600 |
| Cc1csc(COC(=O)N[C@@H](CC(N)=O)C(=O)N[C@@H](CC(C)C)[C@@H](O)C[C@@H](C)C(=O)N[C@H](C(=O)NCC(C)C)C(C)C)n1 [(4-methylthiazol-2-yl)methyl (S)-4-amino-1-((4S,5S,7R)-5-hydroxy-8-((S)-1-(isobutylamino)-3-methyl-1-oxobutan2-ylamino)-2,7-dimethyl-8-oxooctan-4-ylamino)-1,4-dioxobutan-2-ylcarbamate] | 100 to 600 | > 600 |
| COCCOCCOC(=O)C[C@H](NC(=O)OCc1nc(C)oc1C)C(=O)N[C@@H](CC(C)C)[C@@H](O)C[C@@H](C)C(=O)N[C@H](C(=O)NCC(C)C)C(C)C [(S)-2-(2-methoxyethoxy)ethyl 3-(((2,5-dimethyloxazol-4-yl)methoxy)carbonylamino)-4-((4S,5S,7R)-5-hydroxy-8-((S)-1-(isobutylamino)-3-methyl-1-oxobutan-2-ylamino)2,7-dimethyl-8-oxooctan-4-ylamino)-4-oxobutanoate] | < 100 | < 100 |
| Cc1cc(C)n(CCC(=O)N[C@@H](CC(N)=O)C(=O)N[C@@H](CC(C)C)[C@@H](O)C[C@@H](C)C(=O)NC(C)(C)C(=O)NCC(C)C)n1 [(S)-2-(3-(3,5-dimethyl-1H-pyrazol-1-yl)propanamido)-N1-((4S,5S,7R)-5-hydroxy-8-(1-(isobutylamino)-2-methyl-1-oxopropan-2-ylamino)-2,7-dimethyl-8-oxooctan-4-yl)succinamide] | > 600 |  |
| Cc1cc(C)n(CCC(=O)N[C@@H](CC(N)=O)C(=O)N[C@@H](CC(C)C)[C@@H](O)C[C@@H](C)C(=O)NC2(C(=O)NCC(C)C)CCCC2)n1 [(S)-2-(3-(3,5-dimethyl-1H-pyrazol-1-yl)propanamido)-N1-((4S,5S,7R)-5-hydroxy-8-(1-(isobutylcarbamoyl)cyclopentylamino)-2,7-dimethyl-8-oxooctan-4-yl)succinamide] | > 600 |  |

Now from value to molecule:

| Ki (memapsin 2) [nM] | Ki (Cathepsin D) [nM] | SMILES |
| --- | --- | --- |
| 100 to 600 | < 100 | Cc1cc(C)n(CCC(=O)N[C@@H](CC(N)=O)C(=O)N[C@@H](CC(C)C)[C@@H](O)C[C@@H](C)C(=O)N[C@H](C(=O)NCC(C)C)C(C)C)n1 [(S)-2-(3-(3,5-dimethyl-1H-pyrazol-1-yl)propanamido)-N1-((4S,5S,7R)-5-hydroxy-8-((S)-1-(isobutylamino)-3-methyl-1-oxobutan-2-ylamino)-2,7-dimethyl-8-oxooctan-4-yl)succinamide] |
| > 600 |  | COCC[C@H](NC(=O)[C@H](C)C[C@H](O)[C@H](CC(C)C)NC(=O)[C@H](CC(N)=O)NC(=O)CCn1nc(C)cc1C)C(=O)NCC(C)C [(S)-2-(3-(3,5-dimethyl-1H-pyrazol-1-yl)propanamido)-N1-((4S,5S,7R)-5-hydroxy-8-((S)-1-(isobutylamino)-4-methoxy-1-oxobutan-2-ylamino)-2,7-dimethyl-8-oxooctan-4-yl)succinamide] |
| 100 to 600 | < 100 | CC[C@@H](Cn1nc(C)cc1C)C(=O)N[C@@H](CC(N)=O)C(=O)N[C@@H](CC(C)C)[C@@H](O)C[C@@H](C)C(=O)N[C@H](C(=O)NCC(C)C)C(C)C [(S)-2-((S)-2-((3,5-dimethyl-1H-pyrazol-1-yl)methyl)butanamido)-N1-((4S,5S,7R)-5-hydroxy-8-((S)-1-(isobutylamino)-3-methyl-1-oxobutan-2-ylamino)-2,7-dimethyl-8-oxooctan-4-yl)succinamide] |
| 100 to 600 |  | Cc1cc(C)n(CCC(=O)N[C@@H](CC(=O)O)C(=O)N[C@@H](CC(C)C)[C@@H](O)C[C@@H](C)C(=O)N[C@H](C(=O)NCC(C)C)C(C)C)n1 [(S)-3-(3-(3,5-dimethyl-1H-pyrazol-1-yl)propanamido)-4-((4S,5S,7R)-5-hydroxy-8-((S)-1-(isobutylamino)-3-methyl-1-oxobutan-2-ylamino)-2,7-dimethyl-8-oxooctan-4-ylamino)-4-oxobutanoic acid] |
| 100 to 600 | < 100 | Cc1nc(COC(=O)N[C@@H](CC(=O)O)C(=O)N[C@@H](CC(C)C)[C@@H](O)C[C@@H](C)C(=O)N[C@H](C(=O)NCC(C)C)C(C)C)c(C)o1 [(S)-3-(((2,5-dimethyloxazol-4-yl)methoxy)carbonylamino)-4-((4S,5S,7R)-5-hydroxy-8-((S)-1-(isobutylamino)-3-methyl-1-oxobutan-2-ylamino)2,7-dimethyl-8-oxooctan-4-ylamino)-4-oxobutanoic acid] |
| 100 to 600 | 100 to 600 | Cc1csc(C[C@H](C)C(=O)N[C@@H](CC(=O)O)C(=O)N[C@@H](CC(C)C)[C@@H](O)C[C@@H](C)C(=O)N[C@H](C(=O)NCC(C)C)C(C)C)n1 [(S)-4-((4S,5S,7R)-5-hydroxy-8-((S)-1-(isobutylamino)-3-methyl-1-oxobutan-2-ylamino)-2,7-dimethyl-8-oxooctan-4-ylamino)-3-((S)-2-methyl-3-(4-methylthiazol-2-yl)propanamido)-4-oxobutanoic acid] |
| 100 to 600 | < 100 | Cc1csc(C[C@H](C)C(=O)N[C@@H](CC(N)=O)C(=O)N[C@@H](CC(C)C)[C@@H](O)C[C@@H](C)C(=O)N[C@H](C(=O)NCC(C)C)C(C)C)n1 [(S)-N1-((4S,5S,7R)-5-hydroxy-8-((S)-1-(isobutylamino)-3-methyl-1-oxobutan-2-ylamino)-2,7-dimethyl-8-oxooctan-4-yl)-2-((S)-2-methyl-3-(4-methylthiazol-2-yl)propanamido)succinamide] |
| 100 to 600 | < 100 | Cc1csc(C[C@H](C)C(=O)N[C@@H](CC(=O)N(C)C)C(=O)N[C@@H](CC(C)C)[C@@H](O)C[C@@H](C)C(=O)N[C@H](C(=O)NCC(C)C)C(C)C)n1 [(S)-N1-((4S,5S,7R)-5-hydroxy-8-((S)-1-(isobutylamino)-3-methyl-1-oxobutan-2-ylamino)-2,7-dimethyl-8-oxooctan-4-yl)-N4,N4-dimethyl-2-((S)-2-methyl-3-(4-methylthiazol-2-yl)propanamido)succinamide] |
| < 100 |  | CCNC(=O)C[C@H](NC(=O)[C@@H](C)Cc1nc(C)cs1)C(=O)N[C@@H](CC(C)C)[C@@H](O)C[C@@H](C)C(=O)N[C@H](C(=O)NCC(C)C)C(C)C [(S)-N4-ethyl-N1-((4S,5S,7R)-5-hydroxy-8-((S)-1-(isobutylamino)-3-methyl-1-oxobutan-2-ylamino)-2,7-dimethyl-8-oxooctan-4-yl)-2-((S)-2-methyl-3-(4-methylthiazol-2-yl)propanamido)succinamide] |
| < 100 |  | Cc1cc(C)n(CCC(=O)N[C@@H](CC(=O)OCc2ccccc2)C(=O)N[C@@H](CC(C)C)[C@@H](O)C[C@@H](C)C(=O)N[C@H](C(=O)NCC(C)C)C(C)C)n1 [(S)-benzyl 3-(3-(3,5-dimethyl-1H-pyrazol-1-yl)propanamido)-4-((4S,5S,7R)-5-hydroxy-8-((S)-1-(isobutylamino)-3-methyl-1-oxobutan-2-ylamino)-2,7-dimethyl-8-oxooctan-4-ylamino)-4-oxobutanoate] |
| > 600 |  | CC[C@H](Cc1nc(C)cs1)C(=O)N[C@@H](CNC(=O)OC(C)(C)C)C(=O)N[C@@H](CC(C)C)[C@@H](O)C[C@@H](C)C(=O)N[C@H](C(=O)NCC(C)C)C(C)C [tert-butyl (S)-3-((4S,5S,7R)-5-hydroxy-8-((S)-1-(isobutylamino)-3-methyl-1-oxobutan-2-ylamino)-2,7-dimethyl-8-oxooctan-4-ylamino)-2-((R)-2-((4-methylthiazol-2-yl)methyl)butanamido)-3-oxopropylcarbamate] |
